Experimental findings from patent publication US20260125346A1, “Isoquinolinone Derivatives and 4H-Quinolizinone Derivatives and Pharmaceutical Compositions Thereof for the Treatment of Disease” (BeOne Medicines I GmbH, priority 2023, published 2026) are described below.

The target of experiment [1] is PI3Kα (p110/p85) kinase (wild type, "WT") (Homo sapiens, UniProt P42336). The experiment is described as follows: PI3Kα (p110/p85) kinase ADP-Glo Assay. The experiment is classed as biochemical. The note with it: 25 uM ATP. The method, boiled down: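 IC50 values come from a four-parameter logistic fit of ADP-Glo chemiluminescence, reflecting ADP formed. Enzyme, lipid substrate and […] compound were preincubated 30 min at room temperature, then 25 µM ATP was added for a 120 min reaction in 50 mM HEPES pH7.5, 3 mM MgCl2.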
Sequence of PI3Kα (p110/p85) kinase (wild type, "WT") (P42336 whole entry): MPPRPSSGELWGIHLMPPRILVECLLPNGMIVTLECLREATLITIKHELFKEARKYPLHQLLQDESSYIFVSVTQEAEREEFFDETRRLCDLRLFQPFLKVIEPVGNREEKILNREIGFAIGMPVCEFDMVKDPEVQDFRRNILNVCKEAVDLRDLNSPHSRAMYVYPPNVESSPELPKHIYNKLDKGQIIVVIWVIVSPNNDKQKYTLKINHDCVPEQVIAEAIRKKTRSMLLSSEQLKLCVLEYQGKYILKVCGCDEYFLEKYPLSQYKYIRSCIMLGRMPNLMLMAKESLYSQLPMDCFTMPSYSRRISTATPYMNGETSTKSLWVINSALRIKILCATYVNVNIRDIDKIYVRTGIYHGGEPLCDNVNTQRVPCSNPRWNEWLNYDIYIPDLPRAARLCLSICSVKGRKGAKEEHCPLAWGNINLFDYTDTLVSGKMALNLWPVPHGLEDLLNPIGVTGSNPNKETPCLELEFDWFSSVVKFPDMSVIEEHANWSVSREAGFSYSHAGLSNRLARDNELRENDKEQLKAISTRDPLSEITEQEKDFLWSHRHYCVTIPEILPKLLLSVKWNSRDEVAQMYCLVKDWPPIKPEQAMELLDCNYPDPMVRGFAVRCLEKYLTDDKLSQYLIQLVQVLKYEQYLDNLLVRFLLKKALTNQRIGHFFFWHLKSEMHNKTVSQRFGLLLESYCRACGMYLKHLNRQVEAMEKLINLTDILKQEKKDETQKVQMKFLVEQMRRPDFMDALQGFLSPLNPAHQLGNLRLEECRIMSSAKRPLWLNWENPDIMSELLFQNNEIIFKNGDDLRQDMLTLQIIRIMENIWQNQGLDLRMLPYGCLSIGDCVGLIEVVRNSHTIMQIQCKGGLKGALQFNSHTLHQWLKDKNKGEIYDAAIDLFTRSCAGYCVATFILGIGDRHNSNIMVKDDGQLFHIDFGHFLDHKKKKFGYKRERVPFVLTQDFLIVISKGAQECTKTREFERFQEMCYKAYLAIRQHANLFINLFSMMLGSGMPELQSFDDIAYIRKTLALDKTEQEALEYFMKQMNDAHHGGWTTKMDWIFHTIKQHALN
Sequence of PI3Kα (p110/p85) kinase (wild type, "WT") (P27986 whole entry partner): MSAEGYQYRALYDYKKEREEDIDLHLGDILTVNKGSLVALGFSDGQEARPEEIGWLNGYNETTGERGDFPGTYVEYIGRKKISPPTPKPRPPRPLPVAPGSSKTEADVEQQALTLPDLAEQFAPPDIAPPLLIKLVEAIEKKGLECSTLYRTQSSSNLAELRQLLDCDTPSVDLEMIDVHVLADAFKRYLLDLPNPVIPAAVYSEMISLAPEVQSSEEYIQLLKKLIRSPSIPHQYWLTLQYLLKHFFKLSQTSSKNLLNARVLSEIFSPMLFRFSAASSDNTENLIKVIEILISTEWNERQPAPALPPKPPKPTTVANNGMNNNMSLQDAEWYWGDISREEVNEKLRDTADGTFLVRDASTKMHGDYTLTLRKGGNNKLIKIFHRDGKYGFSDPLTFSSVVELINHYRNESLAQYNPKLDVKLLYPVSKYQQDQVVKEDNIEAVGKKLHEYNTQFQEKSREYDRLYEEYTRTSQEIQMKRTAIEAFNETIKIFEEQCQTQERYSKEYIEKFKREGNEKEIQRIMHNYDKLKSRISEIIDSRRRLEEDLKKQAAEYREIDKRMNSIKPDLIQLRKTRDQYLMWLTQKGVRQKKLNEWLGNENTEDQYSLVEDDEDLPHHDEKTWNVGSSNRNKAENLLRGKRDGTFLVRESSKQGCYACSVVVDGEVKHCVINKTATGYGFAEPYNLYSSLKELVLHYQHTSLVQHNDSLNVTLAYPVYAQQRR

The subject of a further experiment is WT cell line SK-BR-3. Kind of experiment: Cell Proliferation Assay (CellTiter-Glo), SK-BR-3. Particulars: Homo sapiens, 72 h; SK-BR-3, 3 days treatment. The experiment is classed as cell-based. The method, boiled down: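 SK-BR-3 cells treated for 3 days with compound in a 9-point series, final concentrations 10 M to 1 nM in 0.1% DMSO. Viability read by CellTiter-Glo luminescence. Relative IC50 from percent inhibition versus medium-only and DMSO controls, four-parameter logistic fit.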

Experiment [2] has as its system PI3Kα H1047R mutated cell line T-47D. The experiment is described as follows: Phospho-AKT (Ser473) Inhibition Assay (HTRF), T-47D. The experiment is classed as cell-based. Particulars: for IC50: Homo sapiens, T47D, T-47D, 1 hour treatment, read-out: p-AKT Inhibition assay (S473) IC50 T-47D; for Selectivity: SK-BR-3/T-47D (p-AKT): p-AKT (S473) IC50 ratio. The procedure, abridged:
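Cells seeded overnight in insulin-supplemented MEM, then treated 1 h with 11-point 1:3 compound dilutions (10 μM to 0.1 nM final, 0.1% DMSO). Lysates assayed for phospho-AKT Ser473 by HTRF; IC50 from 4-parameter logistic fit, normalised to DMSO (max) and 10 μM GDC0077 (min).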

Take `Cc1cc(C(C)Nc2ccccc2C(=O)O)c2cc(-c3ccc(C#N)cc3)n(C)c(=O)c2c1` (stereo not drawn) [Example 4, 2-((1-(3-(4-cyanophenyl)-2,7-dimethyl-1-oxo-1,2-dihydroisoquinolin-5-yl)ethyl)amino)benzoic acid]: the IC50 in experiment [1] was 3.87 µM; in the experiment with WT cell line SK-BR-3, above 10 µM; in experiment [2] it was 0.144 µM. Besides, the “Selectivity: SK-BR-3/T-47D (p-AKT)” value in experiment [2] is listed as above 69.
Turning to `Cc1cc(C(C)Nc2ccccc2C(=O)O)c2cc(-c3cnn(C)c3)n(C)c(=O)c2c1` (stereo not drawn) [Example 91, 2-((1-(2,7-dimethyl-3-(1-methyl-1H-pyrazol-4-yl)-1-oxo-1,2-dihydroisoquinolin-5-yl)ethyl)amino)benzoic acid], the IC50 in experiment [1] is 9.82 µM; in the experiment on WT cell line SK-BR-3 it was above 10 µM; in experiment [2], 0.41 µM. Further, the “Selectivity: SK-BR-3/T-47D (p-AKT)” value in experiment [2] was determined as 11.6.
For `Cc1cc(C(C)Nc2sc3ccccc3c2C(=O)O)c2cc(-c3ccccc3)n(C)c(=O)c2c1` (stereo not drawn) [Example 92, 2-((1-(2,7-dimethyl-1-oxo-3-phenyl-1,2-dihydroisoquinolin-5-yl)ethyl)amino)benzo[b]thiophene-3-carboxylic acid], the IC50 in experiment [1] was above 100 µM; in the experiment with WT cell line SK-BR-3, above 10 µM; in experiment [2], 0.109 µM. Besides, the “Selectivity: SK-BR-3/T-47D (p-AKT)” value in experiment [2] is above 91.
